# In patent US7199082B1, “Methods for extending the freshness of cut flowers, ornamental trees, and plant cuttings” (University of North Texas, priority 1999, dated 2007):
# Like-named read-outs stand apart in the source and are kept apart here.
# How the values were obtained:
# castor bean PLD α = castor bean PLD α (Ricinus communis, UniProt Q41142); assay: biochemical; type: biochemical
# white carnation = assay: Stem wilt of cut carnations (angle of declination at nodes below flower head); type: in vivo; conditions: for Angle of bend of stem, 2nd Node Below Flower / Angle of bend of stem, 3rd Node Below Flower: after 14 days, single stems separated by /
# Description: Because NAE inhibited PLD cc activity in vitro, and because PLD activity has been associated with cellular damage in senescing plant tissues, the effect of NAE-containing solutions was tested as senescence-delaying agents for cut flowers. Several parameters were examined with carnations, stem wilt, and flower cross-sectional width and appearance. For stem wilt, the angle of declination at the second and third nodes from the flower head was measured from photographs taken at 14 days after treatments (Table 3). Flowers were either dipped in agar, or not, then dipped into water or NAE 12:0 at 0.1 mM. The larger the angle reported, the greater the wilt or bend of the stem.
# carnations = assay: Appearance of carnation blooms (brown petals, corolla size); type: in vivo; conditions: after 14 days
# Description: In related studies, the appearance of visible signs of senescence (brown petals) and size of the carnation corolla were evaluated at different concentrations of NAE12:0 (Table 4).
# long-stem pink roses = assay: Appearance of long-stem pink roses; type: in vivo, rose; parameters: key to Roses appearance (mark): *: Best Appearance; conditions: after 7 days; for Size of Flower Bloom (Cross-Sectional Width at Tip): 2 ml of test solution at day zero, in water
# cabbage PLD α = cabbage PLD α (Brassica oleracea var. capitata, UniProt P55939); assay: NAE inhibition of highly purified cabbage PLD α; conditions: for remaining activity at 1 µM: read-out: cabbage PLD activity, % of the control; for inhibition of cabbage PLD α: submicromolar to low micromolar amounts (FIG. 6)
# Sequence of cabbage PLD α (P55939 37-812): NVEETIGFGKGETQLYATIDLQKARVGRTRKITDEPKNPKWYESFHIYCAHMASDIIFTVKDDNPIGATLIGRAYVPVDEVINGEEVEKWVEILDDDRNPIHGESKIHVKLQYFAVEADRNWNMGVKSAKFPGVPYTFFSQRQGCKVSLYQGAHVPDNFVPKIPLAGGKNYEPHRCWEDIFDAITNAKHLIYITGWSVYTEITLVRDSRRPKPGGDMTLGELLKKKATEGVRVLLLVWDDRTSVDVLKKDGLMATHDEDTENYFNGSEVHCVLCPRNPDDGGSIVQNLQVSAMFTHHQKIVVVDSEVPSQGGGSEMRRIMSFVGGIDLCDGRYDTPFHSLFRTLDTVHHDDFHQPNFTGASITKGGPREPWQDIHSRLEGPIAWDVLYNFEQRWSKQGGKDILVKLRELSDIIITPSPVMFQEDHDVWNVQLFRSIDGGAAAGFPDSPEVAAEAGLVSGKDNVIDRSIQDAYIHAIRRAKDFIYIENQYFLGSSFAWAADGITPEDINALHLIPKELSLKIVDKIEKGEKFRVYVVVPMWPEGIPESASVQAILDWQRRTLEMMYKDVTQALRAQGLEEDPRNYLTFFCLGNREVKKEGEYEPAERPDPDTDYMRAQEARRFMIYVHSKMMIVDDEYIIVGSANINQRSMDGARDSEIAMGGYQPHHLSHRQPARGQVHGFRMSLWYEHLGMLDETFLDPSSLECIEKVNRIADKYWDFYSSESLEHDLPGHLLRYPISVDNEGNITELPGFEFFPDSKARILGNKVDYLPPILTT
# red Gerber daisy = assay: Days before wilting and petal collapse, random blind comparison
# S. chromofuscus PLD = assay: NAE effect on S. chromofuscus PLD (production of radiolabeled phosphatidic acid); conditions: submicromolar to low micromolar amounts (FIG. 6)
# [1] = Solubility of NAEs and NAE formulations in aqueous solutions; type: physicochemical; conditions: longer acyl chain NAEs in the formulations
# PLD = conditions: Ryu et al., 1997; cited from earlier work
# [2] = agar-dipped stem in 0.1 mM NAE 12:0 (n = 2)
# Sequence of castor bean PLD α (Q41142 31-808 limits assumed): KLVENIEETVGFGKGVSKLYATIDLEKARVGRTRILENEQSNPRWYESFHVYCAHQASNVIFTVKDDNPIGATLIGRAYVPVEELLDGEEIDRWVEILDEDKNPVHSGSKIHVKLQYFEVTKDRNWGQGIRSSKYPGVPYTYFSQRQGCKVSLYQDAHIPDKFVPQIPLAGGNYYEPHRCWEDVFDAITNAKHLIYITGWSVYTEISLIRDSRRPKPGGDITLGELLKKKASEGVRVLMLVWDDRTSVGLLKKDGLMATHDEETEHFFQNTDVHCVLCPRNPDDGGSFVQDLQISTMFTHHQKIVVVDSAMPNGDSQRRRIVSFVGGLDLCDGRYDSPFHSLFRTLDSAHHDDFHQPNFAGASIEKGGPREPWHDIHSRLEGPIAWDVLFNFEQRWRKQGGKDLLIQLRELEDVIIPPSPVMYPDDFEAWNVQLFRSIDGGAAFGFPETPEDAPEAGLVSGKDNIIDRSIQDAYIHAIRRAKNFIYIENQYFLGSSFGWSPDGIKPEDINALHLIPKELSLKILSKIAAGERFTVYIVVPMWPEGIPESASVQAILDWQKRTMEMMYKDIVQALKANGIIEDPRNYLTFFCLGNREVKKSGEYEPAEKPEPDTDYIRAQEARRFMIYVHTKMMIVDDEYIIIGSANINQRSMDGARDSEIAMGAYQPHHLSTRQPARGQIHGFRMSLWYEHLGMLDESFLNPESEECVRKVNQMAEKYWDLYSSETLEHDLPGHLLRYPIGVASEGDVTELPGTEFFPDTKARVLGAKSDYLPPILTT
smiles,measurement,setting,value
"CCCCCCCCCCCC(=O)NCCO [NAE12:0, N-lauroylethanolamine]",IC50,castor bean PLD α,0.13 µM
same,castor bean PLD α activity,castor bean PLD α,no activity
same,freshness of carnation stems,"white carnation; 0.1 mM, 14 days after treatments",provided extended freshness to carnation stems
same,"Angle of bend of stem, 2nd Node Below Flower",white carnation; NAE 12:0 only 0.1 mM (n = 3),8/16/12
same,"Angle of bend of stem, 3rd Node Below Flower",white carnation; NAE 12:0 only 0.1 mM (n = 3),8/12/11
same,"Angle of bend of stem, 2nd Node Below Flower",white carnation; [2],27/42
same,"Angle of bend of stem, 3rd Node Below Flower",white carnation; [2],31/13
same,Size of Flower Bloom (Cross-Sectional Width),carnations; 0.0004 mM,2.6 cm
same,Size of Flower Bloom (Cross-Sectional Width),carnations; 0.004 mM,3.0 cm
same,visible signs of flower senescence,carnations; 0.04 mM,little evidence of flower senescence
same,Size of Flower Bloom (Cross-Sectional Width),carnations; 0.040 mM,3.3 cm
same,Size of Flower Bloom (Cross-Sectional Width),carnations; 0.4 mM,3.1 cm
same,Size of Flower Bloom (Cross-Sectional Width at Tip),long-stem pink roses; 0.0004 mM,1.0 cm
same,Size of Flower Bloom (Cross-Sectional Width at Tip),long-stem pink roses; 0.004 mM,2.3 cm
same,Roses appearance (mark),long-stem pink roses; 0.004 mM,*
same,Size of Flower Bloom (Cross-Sectional Width at Tip),long-stem pink roses; 0.04 mM,1.8 cm
same,Roses appearance (mark),long-stem pink roses; 0.04 mM,*
same,Size of Flower Bloom (Cross-Sectional Width at Tip),long-stem pink roses; 0.4 mM,1.8 cm
same,Roses appearance,long-stem pink roses; cell spans the NAE columns 0.0004 mM to 0.4 mM,NICE APPEARANCE
same,remaining activity at 1 µM,cabbage PLD α,37%
same,inhibition of cabbage PLD α,cabbage PLD α,effective inhibitors
same,prevention of petal collapse versus water or Aquaplus,"red Gerber daisy; 0.2 mM, blind comparison",far superior in preventing petal collapse
same,Number of Days Before Wilting,"red Gerber daisy; NAE 12:0 0.2 mM aqueous solution, Aquaplus dissolved in water according to manufacturer's instructions",12 days
same,inhibition of S. chromofuscus PLD,S. chromofuscus PLD,but not of S. chromofuscus PLD
"CCCCCCCCCCCCCCCC(=O)NCCO [NAE16:0, N-palmitoylethanolamine]",IC50,castor bean PLD α,5 µM
same,solubility in water,[1],limited solubility in water
"CCCCCCCCCCCCCCCCCC(=O)NCCO [NAE18:0, N-stearoylethanolamine]",IC50,castor bean PLD α,10 µM
same,solubility in water,[1],limited solubility in water
"CC/C=C\C/C=C\C/C=C\CCCCCCCC(=O)NCCO [NAE18:3, N-linolenoylethanolamine]",IC50,castor bean PLD α; read-out: IC50 Values,80 µM
"CCCCCCCCCCCCCC(=O)O [myristic acid, reference compound]",cabbage PLD activity,cabbage PLD α; in the presence of 10 μM,unchanged
"CCCCC/C=C\C/C=C\CCCCCCCC(=O)NCCO [NAE18:2, N-linoleoylethanolamine]",IC50,castor bean PLD α,30 µM
NCCO [ethanolamine],inhibitory effect on PLD,PLD,no inhibitory effect
"CCCCCCCCCCCCCC(=O)NCCO [NAE14:0, N-myristoylethanolamine]",IC50,castor bean PLD α,0.1 µM
same,castor bean PLD α activity,castor bean PLD α,no activity
same,type of inhibition,castor bean PLD α,noncompetitive binding
same,apparent Vmax,cabbage PLD α; in the presence of 0.01 μM NAE14:0,11.1 μmol min^−1 mg^−1 protein
same,type of inhibition,"cabbage PLD α; increasing substrate concentration (PC), FIG. 7",noncompetitive inhibition
same,remaining activity at 1 µM,cabbage PLD α,22%
same,inhibition of cabbage PLD α,cabbage PLD α,effective inhibitors
same,inhibition of S. chromofuscus PLD,S. chromofuscus PLD,but not of S. chromofuscus PLD
"CCCCCCCCCCCCCCCCCCCC(=O)NCCO [NAE20:0, N-arachidoylethanolamine]",solubility in water,[1],limited solubility in water
